From ChEMBL document CHEMBL4118170, “Alkylsulfanyl analogs as potent α2δ ligands” (Bioorg Med Chem Lett, 2018)

Columns and labels:
[1] = target: Voltage-dependent calcium channel subunit alpha-2/delta-1 (Homo sapiens) (UniProt P54289); assay: Displacement of [3H]gabapentin from human voltage-gated Ca2+ channel alpha2delta1 subunit expressed in HEK293A cell membranes after 30 mins by liquid scintillation counting method
Mus musculus [2] = assay: Analgesic activity in db/db mouse mechanical hyperalgesia model assessed as reversal of mechanical hyperalgesia at 100 mg/kg, po pretreated for 2 hrs by Von Frey test relative to control; assay type: functional
[3] = Cmax in mouse at 10 mg/kg, po or 5 mg/kg, iv; assay type: ADME, organism-based; settings: in vivo
[4] = Half life in mouse at 10 mg/kg, po or 5 mg/kg, iv; assay type: ADME, organism-based; settings: in vivo
Mus musculus [5] = assay: AUC in mouse at 10 mg/kg, po or 5 mg/kg, iv; assay type: ADME, organism-based; settings: in vivo
[6] = Clearance in mouse at 10 mg/kg, po or 5 mg/kg, iv; assay type: ADME, organism-based; settings: in vivo
[7] = Oral bioavailability in mouse at 10 mg/kg; assay type: ADME, organism-based; settings: in vivo
Rattus norvegicus [8] = assay: Analgesic activity in STZ-induced diabetic rat model assessed as pain threshold AUC (0 to 8 hrs) at 50 mg/kg, po by Von Frey test; assay type: functional, organism-based; design: time < 8 hr, dose 50 mg/kg
Rattus norvegicus [9] = assay: Analgesic activity in STZ-induced diabetic rat model assessed as pain threshold AUC (0 to 8 hrs) at 30 mg/kg, po by Von Frey test; assay type: functional, organism-based; design: time < 8 hr, dose 30 mg/kg
Mus musculus [10] = assay: Effect on motor coordination in mouse at 30 mg/kg, po measured over 120 secs at 2 hrs post drug administration by rota rod test; assay type: ADME, organism-based; settings: in vivo
Mus musculus [11] = assay: Effect on motor coordination in mouse at 100 mg/kg, po measured over 120 secs at 2 hrs post drug administration by rota rod test; assay type: ADME, organism-based; settings: in vivo
Rattus norvegicus [12] = assay: Analgesic activity in STZ-induced diabetic rat model assessed as pain threshold AUC (0 to 8 hrs) at 10 mg/kg, po by Von Frey test; assay type: functional, organism-based; design: dose 10 mg/kg, time < 8 hr

Chain of Voltage-dependent calcium channel subunit alpha-2/delta-1 (Homo sapiens) (P54289 25-956 limits assumed): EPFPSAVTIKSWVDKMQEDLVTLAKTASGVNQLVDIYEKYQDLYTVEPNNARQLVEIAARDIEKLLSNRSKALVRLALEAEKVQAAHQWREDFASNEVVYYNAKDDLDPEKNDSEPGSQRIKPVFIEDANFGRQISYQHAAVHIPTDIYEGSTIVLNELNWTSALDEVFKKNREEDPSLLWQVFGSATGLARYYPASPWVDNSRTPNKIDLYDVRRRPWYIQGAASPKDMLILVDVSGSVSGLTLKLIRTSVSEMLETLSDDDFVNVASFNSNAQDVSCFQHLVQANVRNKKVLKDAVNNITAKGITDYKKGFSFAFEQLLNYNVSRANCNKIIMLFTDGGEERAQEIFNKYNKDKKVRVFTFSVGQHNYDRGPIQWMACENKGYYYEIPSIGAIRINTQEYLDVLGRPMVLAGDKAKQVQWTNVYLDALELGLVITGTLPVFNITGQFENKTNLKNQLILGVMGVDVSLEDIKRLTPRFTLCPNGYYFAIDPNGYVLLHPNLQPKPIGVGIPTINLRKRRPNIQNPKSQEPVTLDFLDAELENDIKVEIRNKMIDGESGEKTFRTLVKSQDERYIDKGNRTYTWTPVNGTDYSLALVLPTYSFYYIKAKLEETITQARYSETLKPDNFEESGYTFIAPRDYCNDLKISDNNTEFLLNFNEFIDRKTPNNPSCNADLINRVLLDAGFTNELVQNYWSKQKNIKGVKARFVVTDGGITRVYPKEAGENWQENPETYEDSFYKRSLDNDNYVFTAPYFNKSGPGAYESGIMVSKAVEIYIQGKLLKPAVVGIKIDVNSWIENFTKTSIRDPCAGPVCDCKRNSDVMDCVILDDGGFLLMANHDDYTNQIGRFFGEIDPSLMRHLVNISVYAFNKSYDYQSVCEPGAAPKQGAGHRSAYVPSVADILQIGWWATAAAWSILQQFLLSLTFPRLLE
Chain of Voltage-dependent calcium channel subunit alpha-2/delta-1 (Homo sapiens) (P54289 957-1103 limits assumed): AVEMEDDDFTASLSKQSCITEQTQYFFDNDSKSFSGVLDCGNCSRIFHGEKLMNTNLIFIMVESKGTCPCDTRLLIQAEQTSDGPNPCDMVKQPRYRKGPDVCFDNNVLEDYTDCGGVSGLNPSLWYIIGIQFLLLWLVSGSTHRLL

Row | Compound | displacement potency (concentration) [1] [µM] | Activity (Mus musculus [2]) [%] | Cmax [3] [µg/mL] | half-life [4] [h] | AUC (Mus musculus [5]) [µg·h/mL] | clearance [6] [L/h/kg] | bioavailability [7] [%] | further results
1 | CC(C)SCC(CN)CC(=O)O (centres undefined) | 19 | – | – | – | – | – | – | –
2 | CSCCC(CN)CC(=O)O (racemic) | 0.48 | 12 | – | – | – | – | – | –
3 | CCS[C@H](C)C[C@H](CN)CC(=O)O | 0.29 | 3 | – | – | – | – | – | –
4 | CCOC(C)CC(CN)CC(=O)O (centres undefined) | 0.97 | 22 | – | – | – | – | – | –
5 | CS[C@@H](C)C[C@@H](CN)CC(=O)O | 0.29 | 0 | 1.61 | 5.8 | 3.02 | 1.43 | 45 | –
6 | COCC(CN)CC(=O)O (racemic) | 3.2 | – | – | – | – | – | – | –
7 | COC(C)CC(CN)CC(=O)O (centres undefined) | 0.41 | 4 | – | – | – | – | – | –
8 | CSCC(C)C(CN)CC(=O)O (centres undefined) | 0.15 | 2 | – | – | – | – | – | –
9 | CS[C@@H](C)C[C@H](CN)CC(=O)O | 0.048 | 80 | 5.19 | 2.4 | 12.5 | 1.06 | 100 | AUC (Rattus norvegicus [8]): 18 g·h; AUC (Rattus norvegicus [9]): 10 g·h; Activity (Mus musculus [10]): Non-Toxic; Activity (Mus musculus [11]): Toxic
10 | CSCC(CN)CC(=O)O (racemic) | 1 | 9 | – | – | – | – | – | –
11 | COCC(C)C(CN)CC(=O)O (centres undefined) | 0.16 | 10 | – | – | – | – | – | –
12 | CCSC(C)CC(CN)CC(=O)O (centres undefined) | 0.2 | 43 | – | – | – | – | – | –
13 | CS[C@H](C)C[C@@H](CN)CC(=O)O | 0.72 | 3 | 3.59 | 4.42 | 5.8 | 1.9 | 100 | –
14 | CS[C@H](C)C[C@H](CN)CC(=O)O | 0.62 | 4 | 6.22 | 4.52 | 9.98 | 1.05 | 100 | –
15 | CCS[C@@H](C)C[C@H](CN)CC(=O)O | 0.02 | 90 | 5.61 | 2.09 | 8.14 | 0.347 | 28 | AUC (Rattus norvegicus [12]): 6.3 g·h; AUC (Rattus norvegicus [9]): 19 g·h; Activity (Mus musculus [10]): Toxic; Activity (Mus musculus [11]): Toxic
16 | CC(C)C[C@H](CN)CC(=O)O [PREGABALIN] | 0.039 | 98 | 1.34 | 2.54 | 18.9 | 0.466 | 88 | AUC (Rattus norvegicus [12]): 5.8 to 17 g·h; AUC (Rattus norvegicus [9]): 18 to 27 g·h; Activity (Mus musculus [10]): Toxic; Activity (Mus musculus [11]): Toxic
17 | CSC(C)CC(CN)CC(=O)O (mixture of isomers) | 0.17 | 64 | – | – | – | – | – | –
18 | COCCC(CN)CC(=O)O (racemic) | 0.24 | 17 | – | – | – | – | – | –
19 | CCSCC(CN)CC(=O)O (racemic) | 1.9 | – | – | – | – | – | – | –
20 | CSC(C)C(CN)CC(=O)O (centres undefined) | 0.24 | 9 | – | – | – | – | – | –
